Source: US9976122B2, “Methods and compositions for generating an immune response by inducing CD40 and pattern recognition receptor adapters” (BAYLOR COLLEGE OF MEDICINE, priority 2008, dated 2018)

What was measured:
[1] = test system: human SOCS1; assay: Real time Q-PCR assay for human SOCS1 in DCs; type: cell-based; conditions: stimulus by itself
Excerpt: Total RNA was purified and reverse transcribed with random hexamers using SuperScript II RTase (Invitrogen, Carlsbad, Calif.). mRNA levels were quantified in DCs by subjecting cDNA to TaqMan PCR analysis using the GeneAmp 5700 Sequence Detection System (Applied Biosystems, Foster City, Calif.). Pre-developed sequence detection reagents (Applied Biosystems) specific for human SOCS1 and 18S rRNA, including forward and reverse primers as well as a fluorogenic TaqMan FAM-labeled hybridization probe, were supplied as mixtures and were used at 1 microliter/20 microliter PCR. Samples were run in duplicates. The level of SOCS1 expression in each sample was normalized to the level of 18S rRNA from the same sample using the comparative 2-delta delta CT method (Livak K J, Schmittgen T D. Analysis of relative gene expression data using real-time quantitative PCR and the 2(-Delta Delta C(T)) Method. Methods. 2001; 25:402-408).
Finally, the induction of the suppressor of cytokine signaling (SOCS1) was evaluated.

[2] = test system: Naïve CD4+CD45RA+ T cells; type: cell-based, human; conditions: restimulated with TTp30 at day 7
[3] = test system: human DCs; assay: Cytokine ELISA (IL-12p70, IL-6) of culture supernatants of human monocyte-derived DCs; type: cell-based; conditions: LPS and CD40L-stimulated DCs

Lipopolysaccharide [LPS]
SOCS1 induction in DCs [1]: up-regulated

monophosphoryl lipid A [MPL]
IFN-gamma production in CD4+ T cells [2]: not induced

B1: CD40L: CD40 ligand, a TNF family member that binds to the CD40 receptor (protein)
chain: MIETYNQTSPRSAATGLPISMKIFMYLLTVFLITQMIGSALFAVYLHRRLDKIEDERNLHEDFVFMKTIQRCNTGERSLSLLNCEEIKSQFEGFVKDIMLNKEETKKENSFEMQKGDQNPQIAAHVISEASSKTTSVLQWAEKGYYTMSNNLVTLENGKQLTVKRQGLYYIYAQVTFCSNREASSQAPFIASLCLKSPGRFERILLRAANTHSSAKPCGQQSIHLGGVFELQPGASVFVNVTDPSQVSHGTGFTSFGLLKL
IL-12p70 expression after removal of LPS stimulation [3]: ceased when LPS stimulation was removed
